The results in this text go back to US10160755B2 (Plexxikon Inc., priority 2015, dated 2018).

One test deals with T1, FLT3-D835Y (Homo sapiens, UniProt P36888, D835Y).
T1 construct: purchased Invitrogen PV3967
T1 sequence (P36888 27-993 D835Y): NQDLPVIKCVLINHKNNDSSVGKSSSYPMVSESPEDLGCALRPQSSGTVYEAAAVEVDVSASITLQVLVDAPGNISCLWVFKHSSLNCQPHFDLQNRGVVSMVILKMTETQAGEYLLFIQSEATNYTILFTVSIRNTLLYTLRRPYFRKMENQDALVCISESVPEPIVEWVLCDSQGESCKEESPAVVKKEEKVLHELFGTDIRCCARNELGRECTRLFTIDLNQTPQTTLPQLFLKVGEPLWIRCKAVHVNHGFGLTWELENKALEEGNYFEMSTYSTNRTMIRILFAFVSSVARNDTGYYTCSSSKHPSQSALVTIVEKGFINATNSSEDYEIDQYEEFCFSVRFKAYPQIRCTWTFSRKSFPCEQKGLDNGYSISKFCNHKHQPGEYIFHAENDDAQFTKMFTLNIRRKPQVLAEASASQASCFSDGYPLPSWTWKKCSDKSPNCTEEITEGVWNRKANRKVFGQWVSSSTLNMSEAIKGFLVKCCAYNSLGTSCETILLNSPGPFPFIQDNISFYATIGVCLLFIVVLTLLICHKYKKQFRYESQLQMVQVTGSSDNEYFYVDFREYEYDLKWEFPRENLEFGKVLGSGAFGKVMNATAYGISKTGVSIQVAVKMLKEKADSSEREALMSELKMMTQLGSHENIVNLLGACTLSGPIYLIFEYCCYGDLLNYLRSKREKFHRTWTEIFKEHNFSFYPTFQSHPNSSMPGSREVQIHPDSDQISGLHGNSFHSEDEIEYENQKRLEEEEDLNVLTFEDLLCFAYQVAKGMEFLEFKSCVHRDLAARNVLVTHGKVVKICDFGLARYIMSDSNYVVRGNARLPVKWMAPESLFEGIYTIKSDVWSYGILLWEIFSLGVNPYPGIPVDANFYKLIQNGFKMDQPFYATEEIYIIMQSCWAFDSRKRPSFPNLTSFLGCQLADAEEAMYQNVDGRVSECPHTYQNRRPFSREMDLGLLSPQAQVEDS
The test is described as follows: FLT3-D835Y biochemical kinase assay (AlphaScreen). An outline of the steps: (§1)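 Recombinant FLT3 mutant kinases phosphorylate biotin-poly(Glu4-Tyr) peptide (30 nM) at 10 μM ATP for D835Y or 100 μM for ITD. Phosphorylation detected by AlphaScreen: streptavidin donor beads (20 min) then anti-phosphotyrosine PY20 acceptor beads (60 min, RT), signal at 580 nm; inhibition lowers signal.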
In general terms: Alpha assays give light when donor and acceptor beads are brought close together.

Another test has as its target T2, FLT3-ITD (Homo sapiens, UniProt P36888).
T2 construct: FLT3-ITD; Invitrogen #PV6190
T2 sequence (P36888 1-993): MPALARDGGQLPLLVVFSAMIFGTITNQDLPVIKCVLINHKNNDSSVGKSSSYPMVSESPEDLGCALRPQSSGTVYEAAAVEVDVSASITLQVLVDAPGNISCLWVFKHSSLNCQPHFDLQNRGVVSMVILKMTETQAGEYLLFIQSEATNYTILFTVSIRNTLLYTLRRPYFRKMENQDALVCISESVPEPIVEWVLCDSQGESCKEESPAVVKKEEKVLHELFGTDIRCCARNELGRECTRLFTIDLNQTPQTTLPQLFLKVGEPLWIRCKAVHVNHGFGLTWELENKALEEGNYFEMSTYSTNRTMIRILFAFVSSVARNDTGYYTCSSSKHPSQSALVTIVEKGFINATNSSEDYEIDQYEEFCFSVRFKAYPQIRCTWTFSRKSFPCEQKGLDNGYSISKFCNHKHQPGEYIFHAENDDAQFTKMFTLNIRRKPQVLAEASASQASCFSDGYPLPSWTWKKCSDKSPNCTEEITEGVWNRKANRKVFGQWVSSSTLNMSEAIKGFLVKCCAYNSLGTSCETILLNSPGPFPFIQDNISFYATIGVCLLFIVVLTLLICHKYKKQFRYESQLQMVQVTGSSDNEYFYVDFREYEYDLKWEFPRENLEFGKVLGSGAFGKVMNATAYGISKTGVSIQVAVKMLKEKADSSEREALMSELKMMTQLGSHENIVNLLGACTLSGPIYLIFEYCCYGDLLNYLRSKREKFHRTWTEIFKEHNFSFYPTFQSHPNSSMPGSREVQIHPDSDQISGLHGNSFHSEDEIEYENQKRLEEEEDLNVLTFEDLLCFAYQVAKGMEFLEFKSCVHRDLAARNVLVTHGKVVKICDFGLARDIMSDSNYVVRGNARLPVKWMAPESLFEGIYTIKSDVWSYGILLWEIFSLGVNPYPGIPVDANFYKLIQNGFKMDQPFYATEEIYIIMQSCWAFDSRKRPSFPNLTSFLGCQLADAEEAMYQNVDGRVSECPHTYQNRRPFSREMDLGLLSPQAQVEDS
The test is described as follows: FLT3-ITD biochemical kinase assay (AlphaScreen). An outline of the steps: as §1

As a reminder, the IC50 is the concentration at which inhibition is half-maximal. As to `O=S1(=O)CCCN1c1ccc(-c2cnc3[nH]cc(-c4ccc5ncn(C6CCCNC6)c5c4)c3c2)cc1` (stereo not drawn) [P-319, 2-[4-[3-[3-(3-piperidyl)benzimidazol-5-yl]-1H-pyrrolo[2,3-b]pyridin-5-yl]phenyl]-1,2-thiazolidine 1,1-dioxide], the IC50 at FLT3-D835Y and at FLT3-ITD was 0.0001 to 1 µM in each case.

As to `COc1ncc(-c2cnc3[nH]cc(-c4ccc5ncn(C6CCCNC6)c5c4)c3c2)cn1` (stereo not drawn) [P-276, 5-(2-methoxypyrimidin-5-yl)-3-[3-(3-piperidyl)benzimidazol-5-yl]-1H-pyrrolo[2,3-b]pyridine], the IC50 at FLT3-D835Y and against FLT3-ITD was 0.0001 to 1 µM throughout.

As to `CC(C)(C)n1cnc2ccc(-c3c[nH]c4ncc(-c5cccc(N6CCOCC6)c5)cc34)cc21` [P-316, 4-[3-[3-(3-tert-butylbenzimidazol-5-yl)-1H-pyrrolo[2,3-b]pyridin-5-yl]phenyl]morpholine], the IC50 on FLT3-D835Y and against FLT3-ITD was 0.0001 to 1 µM throughout.

As for `COc1cc(-c2cnc3[nH]cc(-c4ccc5ncn(C6CCCN(S(C)(=O)=O)C6)c5c4)c3n2)ccn1` (stereo not drawn) [P-281, 2-(2-methoxy-4-pyridyl)-7-[3-(1-methylsulfonyl-3-piperidyl)benzimidazol-5-yl]-5H-pyrrolo[2,3-b]pyrazine], the 50% inhibitory concentration (IC50) against FLT3-D835Y and against FLT3-ITD was 0.0001 to 1 µM throughout.

In the case of `CC(C)(C)n1cnc2ccc(-c3c[nH]c4ncc(-c5cnc(N6CCC(F)(F)CC6)nc5)nc34)cc21` [P-357, 7-(3-tert-butylbenzimidazol-5-yl)-2-[2-(4,4-difluoro-1-piperidyl)pyrimidin-5-yl]-5H-pyrrolo[2,3-b]pyrazine], the half-maximal inhibitory concentration (IC50) against FLT3-D835Y and against FLT3-ITD was 0.0001 to 1 µM in each case.

Consider `CC(C)(C)n1cnc2ccc(-c3c[nH]c4ncc(-c5cccc(N6CCCCC6)c5)nc34)cc21` [P-336, 7-(3-tert-butylbenzimidazol-5-yl)-2-[3-(1-piperidyl)phenyl]-5H-pyrrolo[2,3-b]pyrazine], for which the half-inhibitory concentration (IC50) at FLT3-D835Y and on FLT3-ITD was 0.0001 to 1 µM in each case.

As to `CCN1CCN(c2cccc(-c3cnc4[nH]cc(-c5ccc6ncn(C(C)(C)C)c6c5)c4n3)c2)CC1` [P-330, 7-(3-tert-butylbenzimidazol-5-yl)-2-[3-(4-ethylpiperazin-1-yl)phenyl]-5H-pyrrolo[2,3-b]pyrazine], the IC50 at FLT3-D835Y and at FLT3-ITD was 0.0001 to 1 µM throughout.

With `CC(C)(C)n1cnc2ccc(-c3c[nH]c4ncc(-c5ccnc(N6CCCCS6(=O)=O)c5)nc34)cc21` [P-309, 2-[4-[7-(3-tert-butylbenzimidazol-5-yl)-5H-pyrrolo[2,3-b]pyrazin-2-yl]-2-pyridyl]thiazinane 1,1-dioxide], the IC50 against FLT3-D835Y and against FLT3-ITD was 0.0001 to 1 µM in each case.

Consider `CC(C)(C)n1cnc2ccc(-c3c[nH]c4ncc(-c5cnc(C#N)nc5)nc34)cc21` [P-352, 5-[7-(3-tert-butylbenzimidazol-5-yl)-5H-pyrrolo[2,3-b]pyrazin-2-yl]pyrimidine-2-carbonitrile], for which the IC50 on FLT3-D835Y and on FLT3-ITD was 0.0001 to 1 µM in each case.

Take `FC(F)n1cc(-c2cnc3[nH]cc(-c4ccc5ncn(C6CCCNC6)c5c4)c3c2)cn1` (stereo not drawn) [P-274, 5-[1-(difluoromethyl)pyrazol-4-yl]-3-[3-(3-piperidyl)benzimidazol-5-yl]-1H-pyrrolo[2,3-b]pyridine]: the 50% inhibitory concentration (IC50) against FLT3-D835Y and against FLT3-ITD was 0.0001 to 1 µM in each case.

On to `CN1CCN(c2cccc(-c3cnc4[nH]cc(-c5ccc6ncn(C7CCCNC7)c6c5)c4n3)c2)CC1` (stereo not drawn) [P-332, 2-[3-(4-methylpiperazin-1-yl)phenyl]-7-[3-(3-piperidyl)benzimidazol-5-yl]-5H-pyrrolo[2,3-b]pyrazine], for which the concentration for half-maximal inhibition (IC50) on FLT3-D835Y and on FLT3-ITD was 0.0001 to 1 µM throughout.

Consider `CCN1CCN(c2cccc(-c3cnc4[nH]cc(-c5ccc6ncn(C7CCCNC7)c6c5)c4n3)c2)CC1` (stereo not drawn) [P-329, 2-[3-(4-ethylpiperazin-1-yl)phenyl]-7-[3-(3-piperidyl)benzimidazol-5-yl]-5H-pyrrolo[2,3-b]pyrazine], for which the IC50 against FLT3-D835Y and against FLT3-ITD was 0.0001 to 1 µM in each case.

For the compound `CN1CCN(c2ccc(-c3cnc4[nH]cc(-c5ccc6ncn(C(C)(C)C)c6c5)c4n3)cc2)CC1` [P-341, 7-(3-tert-butylbenzimidazol-5-yl)-2-[4-(4-methylpiperazin-1-yl)phenyl]-5H-pyrrolo[2,3-b]pyrazine], the IC50 on FLT3-D835Y and against FLT3-ITD was 0.0001 to 1 µM throughout.

With `Cc1cc(C#Cc2cnc3[nH]cc(-c4ccc5ncn(C(C)(C)C)c5c4)c3n2)cc(C)n1` [P-282, 7-(3-tert-butylbenzimidazol-5-yl)-2-[2-(2,6-dimethyl-4-pyridyl)ethynyl]-5H-pyrrolo[2,3-b]pyrazine], the 50% inhibitory concentration (IC50) at FLT3-D835Y and at FLT3-ITD was 0.0001 to 1 µM in each case.

Regarding `c1cc(N2CCCCC2)ccc1-c1cnc2[nH]cc(-c3ccc4ncn(C5CCCNC5)c4c3)c2n1` (stereo not drawn) [P-346, 7-[3-(3-piperidyl)benzimidazol-5-yl]-2-[4-(1-piperidyl)phenyl]-5H-pyrrolo[2,3-b]pyrazine], the IC50 on FLT3-D835Y and on FLT3-ITD was 0.0001 to 1 µM throughout.

`COc1cnc2[nH]cc(-c3ccc4ncn(C5CCCNC5)c4c3)c2c1` (stereo not drawn) [P-079, 5-methoxy-3-[3-(3-piperidyl)benzimidazol-5-yl]-1H-pyrrolo[2,3-b]pyridine]: the IC50 against FLT3-D835Y and against FLT3-ITD was 0.0001 to 1 µM each time.

Turning to `COc1cnc2[nH]cc(-c3ccc4ncn(C5CCC5)c4c3)c2c1` [P-061, 1-cyclobutyl-6-(5-methoxy-1H-pyrrolo[2,3-b]pyridin-3-yl)benzimidazole], the concentration for half-maximal inhibition (IC50) against FLT3-D835Y and against FLT3-ITD was 0.0001 to 1 µM in each case.

Regarding `CC(C)(C)n1cnc2ccc(-c3c[nH]c4ncc(-c5ccc(C#N)nc5)cc34)cc21` [P-290, 5-[3-(3-tert-butylbenzimidazol-5-yl)-1H-pyrrolo[2,3-b]pyridin-5-yl]pyridine-2-carbonitrile], the IC50 against FLT3-D835Y and on FLT3-ITD was 0.0001 to 1 µM in each case.

Take `CCN1CCN(c2ccc(-c3cnc4[nH]cc(-c5ccc6ncn(C(C)(C)C)c6c5)c4n3)cc2)CC1` [P-358, 7-(3-tert-butylbenzimidazol-5-yl)-2-[4-(4-ethylpiperazin-1-yl)phenyl]-5H-pyrrolo[2,3-b]pyrazine]: the IC50 at FLT3-D835Y and at FLT3-ITD was 0.0001 to 1 µM throughout.

Consider `c1cc(N2CCCCC2)ncc1-c1cnc2[nH]cc(-c3ccc4ncn(C5CCCNC5)c4c3)c2n1` (stereo not drawn) [P-348, 7-[3-(3-piperidyl)benzimidazol-5-yl]-2-[6-(1-piperidyl)-3-pyridyl]-5H-pyrrolo[2,3-b]pyrazine], for which the IC50 at FLT3-D835Y and on FLT3-ITD was 0.0001 to 1 µM throughout.

As for `CC(C)(C)n1cnc2ccc(-c3n[nH]c4ncc(-c5cccc(N6CCCS6(=O)=O)c5)cc34)cc21` [P-296, 2-[3-[3-(3-tert-butylbenzimidazol-5-yl)-1H-pyrazolo[3,4-b]pyridin-5-yl]phenyl]-1,2-thiazolidine 1,1-dioxide], the IC50 against FLT3-D835Y and on FLT3-ITD was 0.0001 to 1 µM throughout.
